Source: ChEMBL document CHEMBL1201862, “PubChem BioAssay data set” (2004)
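Method: 48-hour compound exposure of cells in 96-well plates, five concentrations, linear interpolation of endpoints. GI50 is the concentration that inhibits growth by half.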 Calls of active or inactive are those of the source. Cut-off read from the data, not from the text of the source: active = GI50 up to about 1.1 µM and inactive = higher.

Tests used:
Test in all cases: NCI tumour cell line growth inhibition, 48 h
[1] = tested on: SF-295
[2] = tested on: HOP-62
[3] = tested on: A549
[4] = tested on: NCI-H522
[5] = tested on: NCI-H226
[6] = tested on: NCI/ADR-RES
[7] = tested on: SK-MEL-28
[8] = tested on: M19-MEL
[9] = tested on: Malme-3M
[10] = tested on: OVCAR-8
[11] = tested on: DMS-273
[12] = tested on: HCT-15
[13] = tested on: RPMI-8226
[14] = tested on: OVCAR-4
[15] = tested on: XF498
[16] = tested on: UACC-62
[17] = tested on: SF-539
[18] = tested on: T47D
[19] = tested on: DU-145
[20] = tested on: MDA-MB-435

SMILES | GI50 [1] | GI50 [2] | GI50 [3] | GI50 [4] | GI50 [5] | GI50 [6] | GI50 [7] | GI50 [8] | GI50 [9] | GI50 [10] | GI50 [11] | GI50 [12] [µM] | GI50 [13] | GI50 [14] | GI50 [15] | GI50 [16] | GI50 [17] | GI50 [18] | GI50 [19] | GI50 [20]
Cc1ccc2[nH]c3c(C)c4ccncc4c(C)c3c2c1 | 1.08 µM (active) | 1.19 µM (inactive) | 0.966 µM (active) | 0.929 µM (active) | 1.72 µM (inactive) | 0.513 µM (active) | 1.55 µM (inactive) | 1.36 µM (inactive) | 1.9 µM (inactive) | 0.328 µM (active) | 0.155 µM (active) | 0.63 | 1.09 µM (active) | 1.08 µM (active) | 1.6 µM (inactive) | 1.62 µM (inactive) | 1.33 µM (inactive) | – | – | –
CN(C(=O)c1ccccc1)c1ccc2c(c1)C(=O)c1ccccc1C2=O | > 100 µM (inactive) | > 100 µM (inactive) | – | > 100 µM (inactive) | > 100 µM (inactive) | – | > 100 µM (inactive) | > 100 µM (inactive) | > 100 µM (inactive) | > 100 µM (inactive) | > 100 µM (inactive) | > 100 | > 100 µM (inactive) | > 100 µM (inactive) | > 100 µM (inactive) | > 100 µM (inactive) | – | – | – | –
COc1cc(C2C(Cl)C(=O)N2NC(=O)c2ccccc2O)ccc1O (stereo unspecified) | > 100 µM (inactive) | – | > 100 µM (inactive) | > 100 µM (inactive) | > 100 µM (inactive) | – | > 100 µM (inactive) | > 100 µM (inactive) | > 100 µM (inactive) | 70.8 µM (inactive) | > 100 µM (inactive) | > 100 | – | – | > 100 µM (inactive) | > 100 µM (inactive) | > 100 µM (inactive) | – | – | –
CC(=O)c1c(-c2ccco2)c(C#N)c(=S)n(C2OC(CO)C(O)C(O)C2O)c1C (stereo unspecified) | > 100 µM (inactive) | > 100 µM (inactive) | > 100 µM (inactive) | – | – | 75.9 µM (inactive) | 87.7 µM (inactive) | – | > 100 µM (inactive) | > 100 µM (inactive) | – | > 100 | > 100 µM (inactive) | 75 µM (inactive) | – | 78.9 µM (inactive) | 56 µM (inactive) | 35.5 µM (inactive) | > 100 µM (inactive) | 36.4 µM (inactive)
O=C(CCl)NNC1=Nc2ccc(Cl)cc2SC1 | 15.1 µM (inactive) | 17.7 µM (inactive) | 9.33 µM (inactive) | 0.553 µM (active) | 2.61 µM (inactive) | 1.8 µM (inactive) | 2.03 µM (inactive) | 2.18 µM (inactive) | 1.69 µM (inactive) | 1.4 µM (inactive) | 2.88 µM (inactive) | 1.81 | 1.86 µM (inactive) | 2.12 µM (inactive) | 1.85 µM (inactive) | 2.12 µM (inactive) | 2.02 µM (inactive) | – | – | –
CN/N=C(\C(=O)Nc1ccc(C)c(C)c1)C(C(=O)OC)c1nc2ccc([N+](=O)[O-])cc2nc1O (stereo unspecified) | > 100 µM (inactive) | > 100 µM (inactive) | > 100 µM (inactive) | 12.6 µM (inactive) | > 100 µM (inactive) | – | > 100 µM (inactive) | > 100 µM (inactive) | – | > 100 µM (inactive) | > 100 µM (inactive) | 85.1 | 52.7 µM (inactive) | > 100 µM (inactive) | > 100 µM (inactive) | 83.8 µM (inactive) | > 100 µM (inactive) | – | – | –
CCCCCn1cc2c3c(cccc31)C1C=C(C)CN(C)[C@@H]1C2.Cc1ccc(C(=O)OC(C(=O)O)C(OC(=O)c2ccc(C)cc2)C(=O)O)cc1 (stereo unspecified) | 6.17 µM (inactive) | 12.7 µM (inactive) | 9.33 µM (inactive) | 3.44 µM (inactive) | 9.79 µM (inactive) | 6.17 µM (inactive) | 6.93 µM (inactive) | 4.48 µM (inactive) | 2.56 µM (inactive) | 12.3 µM (inactive) | 3.92 µM (inactive) | 4.58 | 2.64 µM (inactive) | 5.96 µM (inactive) | 2.67 µM (inactive) | 5.25 µM (inactive) | 9.95 µM (inactive) | – | – | –
O=C1OC2(CC1C1(O)C3CC4CC(C3)CC1C4)C1CC3CC(C1)CC2C3 (stereo unspecified) | 14.5 µM (inactive) | – | 56.4 µM (inactive) | – | > 100 µM (inactive) | – | > 100 µM (inactive) | > 100 µM (inactive) | 58.3 µM (inactive) | 35.1 µM (inactive) | > 100 µM (inactive) | > 100 | – | 22.1 µM (inactive) | 9.77 µM (inactive) | > 100 µM (inactive) | > 100 µM (inactive) | – | – | –
N#C/C(=C\c1ccncc1)c1csc2ccccc12 | 32.4 µM (inactive) | 24.8 µM (inactive) | 23.4 µM (inactive) | 17.5 µM (inactive) | 26.4 µM (inactive) | 22.1 µM (inactive) | 34.1 µM (inactive) | 31.8 µM (inactive) | 32.7 µM (inactive) | 28.5 µM (inactive) | 26.3 µM (inactive) | 24 | 18.6 µM (inactive) | 26.2 µM (inactive) | 22.3 µM (inactive) | 22.1 µM (inactive) | 21.4 µM (inactive) | – | – | –
Cc1ccc([N+](=O)[O-])cc1S(=O)(=O)Nc1ccc(C2=NNC(c3ccccc3O)C2)cc1 (stereo unspecified) | 31.7 µM (inactive) | 21.1 µM (inactive) | 24.9 µM (inactive) | 23.3 µM (inactive) | 48.3 µM (inactive) | 24.8 µM (inactive) | 26.9 µM (inactive) | – | 25.9 µM (inactive) | 56 µM (inactive) | – | 21.2 | 26.2 µM (inactive) | 19.8 µM (inactive) | – | 17.6 µM (inactive) | 40.8 µM (inactive) | 17.3 µM (inactive) | 38.7 µM (inactive) | 22.1 µM (inactive)
CC1(C(=O)O)CCC(C(=O)O)C(C)(C)O1 (stereo unspecified) | > 100 µM (inactive) | 4.9 µM (inactive) | > 100 µM (inactive) | > 100 µM (inactive) | > 100 µM (inactive) | > 100 µM (inactive) | > 100 µM (inactive) | – | > 100 µM (inactive) | > 100 µM (inactive) | – | – | > 100 µM (inactive) | > 100 µM (inactive) | – | > 100 µM (inactive) | > 100 µM (inactive) | > 100 µM (inactive) | > 100 µM (inactive) | > 100 µM (inactive)
